Measurements reported in ChEMBL document CHEMBL1687703, “Modification at the Lipophilic Domain of RXR Agonists Differentially Influences Activation of RXR Heterodimers” (ACS Med Chem Lett, 2010).
Activity calls are given as the source filed them. No cut-off for these calls is given here.

Experiments:
[1] = molecular target: T1, Retinoic acid receptor RXR-alpha (Homo sapiens, UniProt P19793); assay: Agonist activity at RXRalpha transfected in […] COS1 cells after 18 hrs by luciferase reporter gene transactivation assay; format: functional, cell-based, COS-1
T1 sequence (P19793 whole entry): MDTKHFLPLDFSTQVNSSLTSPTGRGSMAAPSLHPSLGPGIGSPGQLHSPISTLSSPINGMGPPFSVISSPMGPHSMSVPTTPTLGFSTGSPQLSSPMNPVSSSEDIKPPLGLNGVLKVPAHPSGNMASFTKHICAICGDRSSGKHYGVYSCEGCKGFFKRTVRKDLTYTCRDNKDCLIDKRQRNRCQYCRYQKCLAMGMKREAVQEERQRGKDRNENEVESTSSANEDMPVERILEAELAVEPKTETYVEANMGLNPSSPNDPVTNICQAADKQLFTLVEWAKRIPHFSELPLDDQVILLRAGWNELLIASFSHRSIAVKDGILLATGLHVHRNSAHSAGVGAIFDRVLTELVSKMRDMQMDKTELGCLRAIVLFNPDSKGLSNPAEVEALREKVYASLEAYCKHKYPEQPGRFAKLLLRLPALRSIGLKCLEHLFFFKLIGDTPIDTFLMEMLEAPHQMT

[2] = molecular target: Retinoic acid receptor RXR-alpha/oxysterols receptor LXR-alpha (Homo sapiens) (UniProt P19793+Q13133); assay: Agonist activity at LXRalpha/RXRalpha transfected in […] COS1 cells at 10^-7 to 10^-6 M after 18 hrs by luciferase reporter gene transactivation assay; format: functional, cell-based; details: COS-1
[3] = molecular target: T2, Oxysterols receptor LXR-alpha (Homo sapiens) (UniProt Q13133); assay: Agonist activity at LXRalpha transfected in […] COS1 cells after 18 hrs by luciferase reporter gene transactivation assay; format: functional, cell-based; details: COS-1
T2 sequence (whole entry): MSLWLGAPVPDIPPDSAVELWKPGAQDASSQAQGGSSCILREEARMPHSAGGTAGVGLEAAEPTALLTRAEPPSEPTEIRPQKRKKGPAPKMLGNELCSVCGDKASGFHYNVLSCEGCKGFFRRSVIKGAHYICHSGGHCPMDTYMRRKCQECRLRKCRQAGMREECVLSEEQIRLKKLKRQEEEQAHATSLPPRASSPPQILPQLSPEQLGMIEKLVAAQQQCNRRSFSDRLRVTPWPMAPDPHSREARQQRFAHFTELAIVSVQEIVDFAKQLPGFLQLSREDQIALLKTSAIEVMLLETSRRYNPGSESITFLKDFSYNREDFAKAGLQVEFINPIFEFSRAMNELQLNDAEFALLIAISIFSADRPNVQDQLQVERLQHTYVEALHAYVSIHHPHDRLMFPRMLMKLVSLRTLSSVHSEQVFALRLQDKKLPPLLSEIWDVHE

| Compound | EC50 [1] [nM] | Activity [2] | Activity [3] |
| --- | --- | --- | --- |
| CCCCCCOc1cc(N(CC)c2ccc(C(=O)O)cn2)ccc1C(C)C | 280 | – | – |
| CCN(c1ccc(C(C)C)c(OCCc2ccccc2)c1)c1ccc(C(=O)O)cn1 | 330 | – | – |
| CCN(c1ccc(C(C)C)c(OCCCc2ccccc2)c1)c1ccc(C(=O)O)cn1 | 820 | – | – |
| CCN(c1ccc2c(c1)C(C)(C)CCC2(C)C)c1ccc(C(=O)O)cn1 | – | – | Active |
| CCN(c1ccc(C(C)C)c(OCC(F)(F)F)c1)c1ccc(C(=O)O)cn1 | 160 | – | – |
| CCN(c1ccc(C(C)C)c(OCc2ccccc2)c1)c1ccc(C(=O)O)cn1 | 160 | Active | – |

Second part, the compound after the results:

| EC50 [1] [nM] | Activity [2] | Activity [3] | Compound |
| --- | --- | --- | --- |
| 450 | – | – | CCCOc1cc(N(CC)c2ccc(C(=O)O)cn2)ccc1C(C)C |
| 110 | – | – | C=C(C)COc1cc(N(CC)c2ccc(C(=O)O)cn2)ccc1C(C)C |
| 180 | – | – | CCCCOc1cc(N(CC)c2ccc(C(=O)O)cn2)ccc1C(C)C |
| 66 | – | – | CCN(c1ccc(C(C)C)c(OC(C)C)c1)c1ccc(C(=O)O)cn1 |
| 290 | Active | – | CCN(c1ccc(C(C)C)c(OCC2CC2)c1)c1ccc(C(=O)O)cn1 |
| – | – | Active | CCN(c1ccc(C(C)C)c(OCC(C)C)c1)c1ccc(C(=O)O)cn1 |
| 160 | – | – | CCN(c1ccc(C(C)C)c(OCC=C(C)C)c1)c1ccc(C(=O)O)cn1 |
| 160 | Active | – | CCCCCOc1cc(N(CC)c2ccc(C(=O)O)cn2)ccc1C(C)C |
